Patent US20100022542A1, “COMPOUNDS EXHIBITING THROMBOPOIETIN RECEPTOR AGONISM” (Shionogi & Co., Ltd., priority 2000, published 2010)

Biological target: T1, human TPO receptor (hTPOR) (Homo sapiens, UniProt P40238)
T1 construct: expressed in transfected cells; host or cells: BaF-B03 (murine IL-3 dependent cell line)
T1 sequence (P40238 26-635): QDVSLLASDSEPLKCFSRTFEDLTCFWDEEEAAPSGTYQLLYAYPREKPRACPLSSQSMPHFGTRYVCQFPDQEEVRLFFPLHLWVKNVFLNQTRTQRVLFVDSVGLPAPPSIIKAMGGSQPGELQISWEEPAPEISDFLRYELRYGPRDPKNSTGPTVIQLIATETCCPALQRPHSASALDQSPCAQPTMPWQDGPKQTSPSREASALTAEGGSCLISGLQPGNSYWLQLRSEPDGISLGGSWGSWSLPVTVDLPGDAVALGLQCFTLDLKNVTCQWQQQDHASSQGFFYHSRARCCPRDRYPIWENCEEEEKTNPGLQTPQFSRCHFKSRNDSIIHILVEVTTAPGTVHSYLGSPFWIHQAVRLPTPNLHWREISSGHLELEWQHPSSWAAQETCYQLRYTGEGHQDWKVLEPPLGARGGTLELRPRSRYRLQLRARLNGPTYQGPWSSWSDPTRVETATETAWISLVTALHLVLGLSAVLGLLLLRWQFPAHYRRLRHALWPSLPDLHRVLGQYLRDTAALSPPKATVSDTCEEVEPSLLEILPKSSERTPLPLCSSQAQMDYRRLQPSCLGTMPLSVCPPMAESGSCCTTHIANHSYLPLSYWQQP
Experiment: Proliferation of TPO dependent BaF/hTPOR cells, WST-1, thrombopoietic activity ED50 (Test Example 3)
Type: cell-based
Conditions: 20 h incubation then WST-1 4 h, absorbance at 450 nm
From the text: FIG. 2: The chart represents proliferation of the human TPO dependent cells bearing human TPO receptors by the present invention compound, wherein the x-axis is concentration of the present invention compound, and the y-axis is the absorbance as an indicator of cell proliferation. Open circles indicate a response of human TPO, and closed circles indicate a response of the compound (B-1).
The TPO dependent BaF/hTPOR cell line which was established by introducing human TPO receptor (hTPOR) into BaF-B03 cells according to Collins et al (J. Cell. Physiol., 137:293-298 (1988)) was used to test the thrombopoietic activity of the present compound. The DNA sequences and encoded peptide sequences for human hTPOR have been described by Vigon et al (Proc. Natl. Acad. Sci. USA, 89:5640-5644 (1992)). TPO dose not have any ability to support proliferation of interleukin-3 dependent parental cell line BaF-B03. BAF/hTPOR cells were maintained in RPMI medium and WEHI-3B conditioned medium as a source of murine interleukin-3 (IL-3). These cells were washed and resuspended in RPMI medium without a source of murine IL-3 and seeded into each well of 96-well microtiter plates at a density of 5×10^4 cells per well in the absence or presence of various concentration of hTPO or the present compound. After incubation at 37° C. for 20 hours in the 5% CO2 incubator, 10% WST-1 reagent (Takara Biomedicals, Japan) was added to each wells and the cells were further incubated for 4 hours. Effect of the present compound on the growth of BAF/mTPOR cell line which was established by introducing murine TPO receptor (mTPOR) into BAF-B03 cells is shown in FIG. 3. Table 8 exemplifies the ED50 for tested compounds of the present invention, wherein the ED50 is the half concentration of the concentration showing the maximum thrombopoietic activity.

Structure (SMILES) | EC50 [nM]
O=C(O)/C(Cl)=C/c1ccc(C(=O)Nc2nc(-c3ccc(OC(F)(F)F)cc3)cs2)cc1 [Compound A-76] | 205
O=C(O)/C(Cl)=C/c1ccc(C(=O)Nc2nc(-c3cc(F)c(F)c(F)c3F)cs2)cc1 [Compound A-77] | 110
CSc1ccc(-c2csc(NC(=O)c3ccc(/C=C(\Cl)C(=O)O)cc3)n2)cc1 [Compound A-78] | 408
O=C(O)/C(Cl)=C/c1ccc(C(=O)Nc2nc(-c3cc(C(F)(F)F)ccc3F)cs2)cc1 [Compound A-79] | 410
O=C(O)/C(Cl)=C/c1ccc(C(=O)Nc2nc(-c3cccc(-c4ccccc4)c3F)cs2)cc1 [Compound A-80] | 66
O=C(O)/C(Cl)=C/c1ccc(C(=O)Nc2nc(-c3cccc(Br)c3F)cs2)cc1 [Compound A-81] | 71
COc1cccc(-c2csc(NC(=O)c3ccc(/C=C(\Cl)C(=O)O)cc3)n2)c1F [Compound A-82] | 199
Cc1cccc(-c2csc(NC(=O)c3ccc(/C=C(\Cl)C(=O)O)cc3)n2)c1F [Compound A-83] | 77
CCCCCc1cccc(-c2csc(NC(=O)c3ccc(/C=C(\Cl)C(=O)O)cc3)n2)c1F [Compound A-84] | 23
O=C(O)/C(Cl)=C/c1ccc(C(=O)Nc2nc(-c3ccc(F)c(Br)c3F)cs2)cc1 [Compound A-86] | 243
Cc1ccc(C)c(-c2csc(NC(=O)c3ccc(/C=C(\Cl)C(=O)O)cc3)n2)c1 [Compound A-87] | 710
O=C(O)/C(Cl)=C/c1ccc(C(=O)Nc2nc(-c3cccc(-c4ccc(F)cc4)c3F)cs2)cc1 [Compound A-88] | 28
O=C(O)/C(Cl)=C/c1ccc(C(=O)Nc2nc(-c3ccc(F)c(-c4ccccc4)c3F)cs2)cc1 [Compound A-89] | 72
O=C(O)/C(Cl)=C/c1ccc(C(=O)Nc2nc(-c3cccc(Cl)c3Cl)cs2)cc1 [Compound A-91] | 76
CCCCCCc1cccc(-c2csc(NC(=O)c3ccc(/C=C(\Cl)C(=O)O)cc3)n2)c1F [Compound A-93] | 8
NC(=O)/C=C/c1ccc(C(=O)Nc2nc(-c3ccc(Cl)c(Cl)c3)cs2)cc1 [Compound B-2] | 257
CNC(=O)/C=C/c1ccc(C(=O)Nc2nc(-c3ccc(Cl)c(Cl)c3)cs2)cc1 [Compound B-3] | 156
CNC(=O)C(C)=Cc1ccc(C(=O)Nc2nc(-c3ccc(Cl)c(Cl)c3)cs2)cc1 [Compound B-4] | 89
CC(=Cc1ccc(C(=O)Nc2nc(-c3ccc(Cl)c(Cl)c3)cs2)cc1)C(=O)N(C)C [Compound B-5] | 123
CCNC(=O)C(C)=Cc1ccc(C(=O)Nc2nc(-c3ccc(Cl)c(Cl)c3)cs2)cc1 [Compound B-6] | 84

Structure (SMILES) | EC50 [nM]
CCCNC(=O)C(C)=Cc1ccc(C(=O)Nc2nc(-c3ccc(Cl)c(Cl)c3)cs2)cc1 [Compound B-7] | 59
CC(=Cc1ccc(C(=O)Nc2nc(-c3ccc(Cl)c(Cl)c3)cs2)cc1)C(=O)N1CCOCC1 [Compound B-8] | 378
C/C(=C\c1ccc(C(=O)Nc2nc(-c3ccc(Cl)c(Cl)c3)cs2)cc1)C(=O)NCc1ccccc1 [Compound B-9] | 82
C/C(=C\c1ccc(C(=O)Nc2nc(-c3ccc(Cl)c(Cl)c3)cs2)cc1)C(=O)Nc1nccs1 [Compound B-11] | 236
C/C(=C\c1ccc(C(=O)Nc2nc(-c3ccc(Cl)c(Cl)c3)cs2)cc1)C(=O)Nc1cccnc1 [Compound B-12] | 207
C/C(=C\c1ccc(C(=O)Nc2nc(-c3ccc(Cl)c(Cl)c3)cs2)cc1)C(=O)NCc1ccc(C(F)(F)F)cc1 [Compound B-13] | 213
C/C(=C\c1ccc(C(=O)Nc2nc(-c3ccc(Cl)c(Cl)c3)cs2)cc1)C(=O)NCc1ccc(F)cc1 [Compound B-14] | 305
C/C(=C\c1ccc(C(=O)Nc2nc(-c3ccc(Cl)c(Cl)c3)cs2)cc1)C(=O)NCc1cccs1 [Compound B-15] | 197
C/C(=C\c1ccc(C(=O)Nc2nc(-c3ccc(Cl)c(Cl)c3)cs2)cc1)C(=O)NCc1ccco1 [Compound B-16] | 182
CC/C(=C\c1ccc(C(=O)Nc2nc(-c3ccc(Cl)c(Cl)c3)cs2)cc1)C(N)=O [Compound B-17] | 244
CC/C(=C\c1ccc(C(=O)Nc2nc(-c3ccc(Cl)c(Cl)c3)cs2)cc1)C(=O)NC [Compound B-18] | 150
CCNC(=O)/C(=C/c1ccc(C(=O)Nc2nc(-c3ccc(Cl)c(Cl)c3)cs2)cc1)CC [Compound B-19] | 150
CC/C(=C\c1ccc(C(=O)Nc2nc(-c3ccc(Cl)c(Cl)c3)cs2)cc1)C(=O)NCc1ccccc1 [Compound B-20] | 425
C/C(=C\c1ccc(C(=O)Nc2nc(-c3ccc(F)c(F)c3)cs2)cc1)C(N)=O [Compound B-25] | 367
CNC(=O)/C(C)=C/c1ccc(C(=O)Nc2nc(-c3ccc(F)c(F)c3)cs2)cc1 [Compound B-26] | 346
C/C(=C\c1ccc(C(=O)Nc2nc(-c3ccc(Cl)c(Cl)c3)cs2)cc1)C(=O)NCCN(C)C [Compound B-27] | 707
C/C(=C\c1ccc(C(=O)Nc2nc(-c3ccc(Cl)c(Cl)c3)cs2)cc1)C(=O)NCCC(=O)O [Compound B-28] | 565
C/C(=C\c1ccc(C(=O)Nc2nc(-c3ccc(Cl)c(Cl)c3)cs2)cc1)C(=O)NN(C)C [Compound B-29] | 181
C/C(=C\c1ccc(C(=O)Nc2nc(-c3ccc(Cl)c(Cl)c3)cs2)cc1)C(=O)Nc1ccccc1 [Compound B-30] | 177
C/C(=C\c1ccc(C(=O)Nc2nc(-c3ccc(Cl)c(Cl)c3)cs2)cc1)C(=O)NCC(F)(F)F [Compound B-31] | 178

Structure (SMILES) | EC50 [nM]
CSCCCNC(=O)/C(C)=C/c1ccc(C(=O)Nc2nc(-c3ccc(Cl)c(Cl)c3)cs2)cc1 [Compound B-32] | 123
C/C(=C\c1ccc(C(=O)Nc2nc(-c3ccc(Cl)c(Cl)c3)cs2)cc1)C(=O)NC(C)c1ccccc1 (stereo not shown) [Compound B-33] | 372
C/C(=C\c1ccc(C(=O)Nc2nc(-c3ccc(Cl)c(Cl)c3)cs2)cc1)C(=O)NC[Si](C)(C)C [Compound B-34] | 398
C/C(=C\c1ccc(C(=O)Nc2nc(-c3ccc(Cl)c(Cl)c3)cs2)cc1)C(=O)NC1CC1 [Compound B-36] | 163
C/C(=C\c1ccc(C(=O)Nc2nc(-c3ccc(Cl)c(Cl)c3)cs2)cc1)C(=O)NC1CCCC1 [Compound B-38] | 239
C/C(=C\c1ccc(C(=O)Nc2nc(-c3ccc(Cl)c(Cl)c3)cs2)cc1)C(=O)NC(C)(C)C [Compound B-39] | 729
C#CCNC(=O)/C(C)=C/c1ccc(C(=O)Nc2nc(-c3ccc(Cl)c(Cl)c3)cs2)cc1 [Compound B-40] | 201
C=CCNC(=O)/C(C)=C/c1ccc(C(=O)Nc2nc(-c3ccc(Cl)c(Cl)c3)cs2)cc1 [Compound B-41] | 190
COCCNC(=O)/C(C)=C/c1ccc(C(=O)Nc2nc(-c3ccc(Cl)c(Cl)c3)cs2)cc1 [Compound B-42] | 236
CC(=O)NNC(=O)/C(C)=C/c1ccc(C(=O)Nc2nc(-c3ccc(Cl)c(Cl)c3)cs2)cc1 [Compound B-43] | 303
CONC(=O)/C(C)=C/c1ccc(C(=O)Nc2nc(-c3ccc(Cl)c(Cl)c3)cs2)cc1 [Compound B-46] | 213
O=C(O)C(Br)=Cc1ccc(C(=O)Nc2nc(-c3ccc(Cl)c(Cl)c3)cs2)cc1 [Compound C-4] | 922
CC(=Cc1ccc(C(=O)Nc2nc(-c3ccc(Cl)c(Cl)c3)cs2)cc1)c1ncc[nH]1 [Compound D-1] | 276
CC(=Cc1ccc(C(=O)Nc2nc(-c3ccc(Cl)c(Cl)c3)cs2)cc1)S(=O)(=O)N(C)C [Compound F-1] | 174
CC(=Cc1ccc(C(=O)Nc2nc(-c3ccc(Cl)c(Cl)c3)cs2)cc1)S(=O)(=O)NC(C)(C)C [Compound F-2] | 144
CC(=Cc1ccc(C(=O)Nc2nc(-c3ccc(Cl)c(Cl)c3)cs2)cc1)S(N)(=O)=O [Compound F-3] | 198
COC(=O)CCc1ccc(C(=O)Nc2nc(-c3ccc(Cl)c(Cl)c3)cs2)cc1 [Compound G-1] | 261
O=C(O)CCc1ccc(C(=O)Nc2nc(-c3ccc(Cl)c(Cl)c3)cs2)cc1 [Compound G-2] | 299
